PubChem BioAssay AID1963980 (Molecular Pharmacology Branch, DTP, NCI, 2024)

Tested on: 475296-252-R-J1-PDC spheroid viability
Assay: Anticancer human tumor 475296-252-R-J1-PDC patient-derived rectal carcinoma cell line growth inhibition [PI3K]
Conditions: spheroids with HUVEC and MSC; for IC50: curve of first compound; for viability, T/C: stronger effect = lower value
How it was run: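 Viability of mixed-cell spheroids was determined after exposure to pairwise combinations, one partner being inavolisib, alpelisib, duvelisib or copanlisib. Highest tested concentration matched clinical Cmax where known and 10 microM where not, descending in half-log steps.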
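Further: spheroids exposed to agents for seven days before readout.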

How did the IC50 (second compound 0.00316 µM) turn out when `Cn1cnc2c(F)c(Nc3ccc(Br)cc3Cl)c(C(=O)NOCCO)cc21` + COc1c(OCCCN2CCOCC2)ccc2c3n(c(=NC(=O)c4cnc(N)nc4)nc12)CCN3 was run?
Its IC50 is 2.05 µM.

And the IC50 (second compound 0.01 µM)?
Its IC50 is 0.469 µM.

What about the IC50 (second compound 0.0316 µM) of the same molecule?
Its IC50 is 0.162 µM.

What about the IC50 (second compound 0.1 µM) of the same molecule?
Its IC50 is 0.0942 µM.

And the IC50 (second compound 0.316 µM)?
Its IC50 is 0.0271 µM.

What about the IC50 (second compound 1 µM) of the same molecule?
The IC50 was less than 0.00949 µM.

And the viability, T/C (second compound 0.00316 µM, first compound 0.00949 µM)?
Its viability, T/C is 88%.

What about the viability, T/C (second compound 0.00316 µM, first compound 0.03 µM) of the same molecule?
The viability, T/C was 75.5%.

And the viability, T/C (second compound 0.00316 µM, first compound 0.0949 µM)?
The viability, T/C was 73.4%.

And the viability, T/C (second compound 0.00316 µM, first compound 0.3 µM)?
Its viability, T/C is 60.6%.

What about the viability, T/C (second compound 0.00316 µM, first compound 0.949 µM) of the same molecule?
Its viability, T/C is 62.5%.

What about the viability, T/C (second compound 0.00316 µM, first compound 3 µM) of the same molecule?
The viability, T/C was 44.2%.

What about the viability, T/C (second compound 0.01 µM, first compound 0.00949 µM) of the same molecule?
Its viability, T/C is 90.6%.

What about the viability, T/C (second compound 0.01 µM, first compound 0.03 µM) of the same molecule?
Its viability, T/C is 90%.

What about the viability, T/C (second compound 0.01 µM, first compound 0.0949 µM) of the same molecule?
Its viability, T/C is 63%.

And the viability, T/C (second compound 0.01 µM, first compound 0.3 µM)?
The viability, T/C was 53.3%.

And the viability, T/C (second compound 0.01 µM, first compound 0.949 µM)?
The viability, T/C was 53.8%.

And the viability, T/C (second compound 0.01 µM, first compound 3 µM)?
Its viability, T/C is 36.9%.

And the viability, T/C (second compound 0.0316 µM, first compound 0.00949 µM)?
The viability, T/C was 84.1%.

What about the viability, T/C (second compound 0.0316 µM, first compound 0.03 µM) of the same molecule?
Its viability, T/C is 63.3%.

And the viability, T/C (second compound 0.0316 µM, first compound 0.0949 µM)?
The viability, T/C was 56.3%.

What about the viability, T/C (second compound 0.0316 µM, first compound 0.3 µM) of the same molecule?
Its viability, T/C is 42.6%.

What about the viability, T/C (second compound 0.0316 µM, first compound 0.949 µM) of the same molecule?
Its viability, T/C is 37%.

What about the viability, T/C (second compound 0.0316 µM, first compound 3 µM) of the same molecule?
Its viability, T/C is 18.8%.

What about the viability, T/C (second compound 0.1 µM, first compound 0.00949 µM) of the same molecule?
Its viability, T/C is 65%.

And the viability, T/C (second compound 0.1 µM, first compound 0.03 µM)?
The viability, T/C was 67.6%.

And the viability, T/C (second compound 0.1 µM, first compound 0.0949 µM)?
The viability, T/C was 48.7%.

What about the viability, T/C (second compound 0.1 µM, first compound 0.3 µM) of the same molecule?
Its viability, T/C is 25.6%.

And the viability, T/C (second compound 0.1 µM, first compound 0.949 µM)?
The viability, T/C was 16.5%.

And the viability, T/C (second compound 0.1 µM, first compound 3 µM)?
Its viability, T/C is 6.68%.

And the viability, T/C (second compound 0.316 µM, first compound 0.00949 µM)?
Its viability, T/C is 55.9%.

What about the viability, T/C (second compound 0.316 µM, first compound 0.03 µM) of the same molecule?
The viability, T/C was 49.8%.

What about the viability, T/C (second compound 0.316 µM, first compound 0.0949 µM) of the same molecule?
The viability, T/C was 29.4%.

What about the viability, T/C (second compound 0.316 µM, first compound 0.3 µM) of the same molecule?
The viability, T/C was 10.7%.

What about the viability, T/C (second compound 0.316 µM, first compound 0.949 µM) of the same molecule?
Its viability, T/C is 5.48%.

And the viability, T/C (second compound 0.316 µM, first compound 3 µM)?
The viability, T/C was 2.56%.

And the viability, T/C (second compound 1 µM, first compound 0.00949 µM)?
The viability, T/C was 47.1%.

And the viability, T/C (second compound 1 µM, first compound 0.03 µM)?
The viability, T/C was 41.5%.

And the viability, T/C (second compound 1 µM, first compound 0.0949 µM)?
Its viability, T/C is 22.2%.

And the viability, T/C (second compound 1 µM, first compound 0.3 µM)?
Its viability, T/C is 9.1%.

What about the viability, T/C (second compound 1 µM, first compound 0.949 µM) of the same molecule?
The viability, T/C was 5.23%.

And the viability, T/C (second compound 1 µM, first compound 3 µM)?
Its viability, T/C is 3.35%.

`C#Cc1c(F)ccc2cc(O)cc(-c3ncc4c(N5CC6CCC(C5)N6)nc(OCC56CCCN5CC(F)C6)nc4c3F)c12` (centres undefined) + COc1c(OCCCN2CCOCC2)ccc2c3n(c(=NC(=O)c4cnc(N)nc4)nc12)CCN3 was tested. Which IC50 (second compound 0.00316 µM) did it give?
Its IC50 is 7.99 µM.

What about the IC50 (second compound 0.01 µM) of the same molecule?
Its IC50 is 2.07 µM.

What about the IC50 (second compound 0.0316 µM) of the same molecule?
Its IC50 is 0.875 µM.

And the IC50 (second compound 0.1 µM)?
The IC50 was 0.228 µM.

And the IC50 (second compound 0.316 µM)?
The IC50 was 0.134 µM.

What about the IC50 (second compound 1 µM) of the same molecule?
Its IC50 is less than 0.0316 µM.

And the viability, T/C (second compound 0.00316 µM, first compound 0.0316 µM)?
The viability, T/C was 85.9%.

And the viability, T/C (second compound 0.00316 µM, first compound 0.1 µM)?
Its viability, T/C is 87.5%.

What about the viability, T/C (second compound 0.00316 µM, first compound 0.316 µM) of the same molecule?
Its viability, T/C is 79.7%.

And the viability, T/C (second compound 0.00316 µM, first compound 1 µM)?
The viability, T/C was 75.3%.

And the viability, T/C (second compound 0.00316 µM, first compound 3.16 µM)?
Its viability, T/C is 59.2%.

What about the viability, T/C (second compound 0.00316 µM, first compound 10 µM) of the same molecule?
Its viability, T/C is 47.8%.

What about the viability, T/C (second compound 0.01 µM, first compound 0.0316 µM) of the same molecule?
Its viability, T/C is 89.5%.

And the viability, T/C (second compound 0.01 µM, first compound 0.1 µM)?
Its viability, T/C is 90.8%.

What about the viability, T/C (second compound 0.01 µM, first compound 0.316 µM) of the same molecule?
Its viability, T/C is 68%.

What about the viability, T/C (second compound 0.01 µM, first compound 1 µM) of the same molecule?
The viability, T/C was 57.2%.

And the viability, T/C (second compound 0.01 µM, first compound 3.16 µM)?
The viability, T/C was 48.9%.

What about the viability, T/C (second compound 0.01 µM, first compound 10 µM) of the same molecule?
Its viability, T/C is 39.9%.

And the viability, T/C (second compound 0.0316 µM, first compound 0.0316 µM)?
Its viability, T/C is 80.6%.

And the viability, T/C (second compound 0.0316 µM, first compound 0.1 µM)?
Its viability, T/C is 76.4%.

What about the viability, T/C (second compound 0.0316 µM, first compound 0.316 µM) of the same molecule?
Its viability, T/C is 65.4%.

What about the viability, T/C (second compound 0.0316 µM, first compound 1 µM) of the same molecule?
Its viability, T/C is 46.1%.

And the viability, T/C (second compound 0.0316 µM, first compound 3.16 µM)?
Its viability, T/C is 31.1%.

What about the viability, T/C (second compound 0.0316 µM, first compound 10 µM) of the same molecule?
Its viability, T/C is 14.3%.

What about the viability, T/C (second compound 0.1 µM, first compound 0.0316 µM) of the same molecule?
Its viability, T/C is 67%.

And the viability, T/C (second compound 0.1 µM, first compound 0.1 µM)?
Its viability, T/C is 68.9%.

What about the viability, T/C (second compound 0.1 µM, first compound 0.316 µM) of the same molecule?
The viability, T/C was 40.7%.

What about the viability, T/C (second compound 0.1 µM, first compound 1 µM) of the same molecule?
The viability, T/C was 23%.

And the viability, T/C (second compound 0.1 µM, first compound 3.16 µM)?
The viability, T/C was 8.13%.

What about the viability, T/C (second compound 0.1 µM, first compound 10 µM) of the same molecule?
The viability, T/C was 3.98%.

What about the viability, T/C (second compound 0.316 µM, first compound 0.0316 µM) of the same molecule?
The viability, T/C was 64.5%.

What about the viability, T/C (second compound 0.316 µM, first compound 0.1 µM) of the same molecule?
Its viability, T/C is 57.4%.

And the viability, T/C (second compound 0.316 µM, first compound 0.316 µM)?
The viability, T/C was 28.3%.

What about the viability, T/C (second compound 0.316 µM, first compound 1 µM) of the same molecule?
The viability, T/C was 7.5%.

What about the viability, T/C (second compound 0.316 µM, first compound 3.16 µM) of the same molecule?
Its viability, T/C is 3.69%.

What about the viability, T/C (second compound 0.316 µM, first compound 10 µM) of the same molecule?
The viability, T/C was 2.51%.

And the viability, T/C (second compound 1 µM, first compound 0.0316 µM)?
The viability, T/C was 45.9%.

And the viability, T/C (second compound 1 µM, first compound 0.1 µM)?
The viability, T/C was 34.2%.

And the viability, T/C (second compound 1 µM, first compound 0.316 µM)?
Its viability, T/C is 21.3%.

What about the viability, T/C (second compound 1 µM, first compound 1 µM) of the same molecule?
The viability, T/C was 6.91%.

And the viability, T/C (second compound 1 µM, first compound 3.16 µM)?
The viability, T/C was 5.05%.

And the viability, T/C (second compound 1 µM, first compound 10 µM)?
Its viability, T/C is 4.55%.
